Laboratory results as given in ChEMBL document CHEMBL1137072, “Peptide deformylase inhibitors with activity against respiratory tract pathogens” (Bioorg Med Chem Lett, 2004).
Values after ≈ are worked out from the molar mass of the structure shown. Blank lines part the entries; values can stand above or below the molecule they belong to.

Assays:
[1] = test system: Escherichia coli; test: Minimum inhibitory concentration required for primary screening against in-house strain of Escherichia coli tested in vitro; assay type: functional
[2] = test system: Staphylococcus capitis; test: Minimum inhibitory concentration required for primary screening against in-house strain of Staphylococcus capitis tested in vitro; assay type: functional
[3] = target: T1, Peptide deformylase (Escherichia coli, UniProt Q9JN24); test: Inhibitory activity against Escherichia coli peptide deformylase (PDF) Nickel containing enzyme
T1 sequence (Q9JN24 whole entry): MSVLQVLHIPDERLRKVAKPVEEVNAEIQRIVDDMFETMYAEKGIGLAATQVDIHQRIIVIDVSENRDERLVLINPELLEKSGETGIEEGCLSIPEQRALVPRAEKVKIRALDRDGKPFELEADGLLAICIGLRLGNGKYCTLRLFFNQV

[4] = test system: Haemophilus influenzae; test: Minimum inhibitory concentration required for primary screening against in-house strain of Haemophilus influenzae tested in vitro; Range-0.125-2; assay type: functional
[5] = test system: Moraxella catarrhalis; test: Minimum inhibitory concentration required for primary screening against in-house strain of Moraxella catarrhalis tested in vitro; assay type: functional
[6] = test system: Streptococcus pneumoniae; test: Minimum inhibitory concentration required for primary screening against in-house strain of Streptococcus pneumoniae tested in vitro; Range- 0.5-1; assay type: functional
[7] = test system: Haemophilus influenzae; test: Minimum inhibitory concentration required for primary screening against in-house strain of Haemophilus influenzae tested in vitro; Range- 0.25-2; assay type: functional
[8] = test system: Streptococcus pneumoniae; test: Minimum inhibitory concentration required for primary screening against in-house strain of Streptococcus pneumoniae tested in vitro; Range- 1-2; assay type: functional
[9] = test system: Haemophilus influenzae; test: Minimum inhibitory concentration required for primary screening against in-house strain of Haemophilus influenzae tested in vitro; Range- 0.5-4; assay type: functional
[10] = test system: Moraxella catarrhalis; test: Minimum inhibitory concentration required for primary screening against in-house strain of Moraxella catarrhalis tested in vitro; Range- 0.015-0.12; assay type: functional
[11] = test system: Streptococcus pneumoniae; test: Minimum inhibitory concentration required for primary screening against in-house strain of Streptococcus pneumoniae tested in vitro; Range- 0.25-0.5; assay type: functional
[12] = test system: Streptococcus pneumoniae; test: Minimum inhibitory concentration required for primary screening against in-house strain of Streptococcus pneumoniae tested in vitro; Range- 0.06-2; assay type: functional
[13] = test system: Streptococcus pneumoniae; test: Minimum inhibitory concentration required for primary screening against in-house strain of Streptococcus pneumoniae tested in vitro; assay type: functional
[14] = test system: Haemophilus influenzae; test: Minimum inhibitory concentration required for primary screening against in-house strain of Haemophilus influenzae tested in vitro; Range- 0.5-8; assay type: functional
[15] = test system: Moraxella catarrhalis; test: Minimum inhibitory concentration required for primary screening against in-house strain of Moraxella catarrhalis tested in vitro; Range- 0.125-0.25; assay type: functional
[16] = test system: Haemophilus influenzae; test: Minimum inhibitory concentration required for primary screening against in-house strain of Haemophilus influenzae tested in vitro; Range- 0.125-2; assay type: functional

- MIC [1]: 12.5 µM (≈ 4.53 µg/mL)
- MIC [2]: 12.5 µM (≈ 4.53 µg/mL)
Structure (SMILES): CCCC[C@H](CN(O)C=O)C(=O)N[C@H](C(=O)c1ccccc1)C(C)(C)C

Structure (SMILES): CCCC[C@H](CN(O)C=O)C(=O)N[C@H](C(=O)c1ccc(NS(C)(=O)=O)cc1)C(C)(C)C
- IC50 [3]: 4 nM

Structure (SMILES): CCCC[C@H](CN(O)C=O)C(=O)N[C@H](C(=O)c1ccc(OC)cc1)C(C)(C)C
- IC50 [3]: 1 nM

Structure (SMILES): CC(C)(C)[C@H](NC(=O)[C@H](CC1CCCC1)CN(O)C=O)C(=O)c1ccc(S(C)(=O)=O)cc1
- MIC [1]: 25 µM (≈ 11.7 µg/mL)
- IC50 [3]: 10 nM
- MIC [2]: 6.25 µM (≈ 2.92 µg/mL)

- MIC [4]: < 2 µg/mL
- MIC [5]: < 0.125 µg/mL
- MIC [6]: < 1 µg/mL
Structure (SMILES): CC(C)(C)[C@H](NC(=O)[C@H](CC1CCCC1)CN(O)C=O)C(=O)c1ccc(N2CCN(CCO)CC2)c(F)c1

Structure (SMILES): CC(C)(C)[C@H](NC(=O)[C@H](CC1CCCC1)CN(O)C=O)C(=O)c1ccc(N2CCN(CCO)CC2)cc1
- MIC [7]: < 2 µg/mL
- MIC [5]: < 0.125 µg/mL
- IC50 [3]: 2 nM
- MIC [8]: < 2 µg/mL

Structure (SMILES): CCCC[C@H](CN(O)C=O)C(=O)N[C@H](C(=O)c1ccc(F)cc1)C(C)(C)C
- IC50 [3]: 3 nM

Structure (SMILES): CC(C)(C)[C@H](NC(=O)[C@H](CC1CCCC1)CN(O)C=O)C(=O)c1cc(F)c(F)cc1N1CCOCC1
- MIC90 [9]: 2 µg/mL (≈ 3.92 µM)
- MIC [7]: < 2 µg/mL
- MIC [5]: < 0.125 µg/mL
- MIC90 [10]: 0.12 µg/mL (≈ 0.235 µM)
- IC50 [3]: 0.5 nM
- MIC [11]: < 0.5 µg/mL
- MIC90 [12]: 1 µg/mL (≈ 1.96 µM)

Structure (SMILES): CC(C)(C)[C@H](NC(=O)[C@H](CC1CCCC1)CN(O)C=O)C(=O)c1ccc(N2CCOCC2)c(F)c1
- MIC [9]: < 4 µg/mL
- MIC [5]: < 0.125 µg/mL
- IC50 [3]: 0.6 nM
- MIC [13]: 0.25 µg/mL (≈ 0.509 µM)

Structure (SMILES): CCCC[C@H](CN(O)C=O)C(=O)N[C@H](C(=O)c1ccccn1)C(C)(C)C
- IC50 [3]: 3 nM

Structure (SMILES): CCCC[C@H](CN(O)C=O)C(=O)N[C@H](C(=O)c1cc2ccccc2o1)C(C)(C)C
- IC50 [3]: 4 nM
- MIC [2]: 1.5 µM (≈ 0.604 µg/mL)

Structure (SMILES): CC(C)(C)[C@H](NC(=O)[C@H](CC1CCCC1)CN(O)C=O)C(=O)c1cc2ccccc2o1
- IC50 [3]: 4 nM

Structure (SMILES): CC(C)(C)[C@H](NC(=O)[C@H](CC1CCCC1)CN(O)C=O)C(=O)c1ccc(O)cc1
- MIC [1]: 6.25 µM (≈ 2.53 µg/mL)
- IC50 [3]: 2 nM
- MIC [2]: 3.1 µM (≈ 1.25 µg/mL)

Structure (SMILES): COc1ccc(C(=O)[C@@H](NC(=O)[C@H](CC2CCCC2)CN(O)C=O)C(C)(C)C)cc1
- IC50 [3]: 3 nM

Structure (SMILES): CC(C)(C)[C@H](NC(=O)[C@H](CC1CCCC1)CN(O)C=O)C(=O)c1ccc(N2CCN(CCN3CCCC3)CC2)c(F)c1
- MIC [14]: < 8 µg/mL
- MIC [15]: < 0.25 µg/mL
- IC50 [3]: 9 nM
- MIC [11]: < 0.5 µg/mL

Structure (SMILES): CCCC[C@H](CN(O)C=O)C(=O)N[C@H](C(=O)c1ccc(NC(C)=O)cc1)C(C)(C)C
- MIC [1]: 12 µM (≈ 5.03 µg/mL)
- IC50 [3]: 8 nM

Structure (SMILES): CC(C)(C)[C@H](NC(=O)[C@H](CC1CCCC1)CN(O)C=O)C(=O)c1ccc(N2CCC(O)CC2)cc1
- MIC [7]: < 2 µg/mL
- MIC [5]: < 0.125 µg/mL
- IC50 [3]: 2 nM
- MIC [13]: 0.25 µg/mL (≈ 0.513 µM)

Structure (SMILES): CC(C)(C)[C@H](NC(=O)[C@H](CC1CCCC1)CN(O)C=O)C(=O)c1ccc(F)cc1
- IC50 [3]: 3 nM

Structure (SMILES): CC(C)(C)[C@H](NC(=O)[C@H](CC1CCCC1)CN(O)C=O)C(=O)c1cc(F)c(F)cc1N1CCC(O)CC1
- MIC [7]: < 2 µg/mL
- MIC [5]: < 0.125 µg/mL
- IC50 [3]: 1 nM
- MIC [11]: < 0.5 µg/mL

Structure (SMILES): CC(C)(C)[C@H](NC(=O)[C@H](CC1CCCC1)CN(O)C=O)C(=O)c1ccc(N2CCC(O)CC2)c(F)c1
- MIC [5]: < 0.125 µg/mL
- IC50 [3]: 2 nM
- MIC [13]: 0.25 µg/mL (≈ 0.494 µM)
- MIC [16]: < 2 µg/mL
